Reference: US4058601A, “Method for treating alcoholism” (Chugai Seiyaku Kabushiki Kaisha, priority 1974, dated 1977)
“And” between values parts separate entries of the source, which are not always exact repeats. Identical values can stand only once. “Also recorded” adds a separate entry of the source.

Assays:
Neutral Lipid in Liver = assay: Inhibiting action for accumulation of neutral lipid in liver (ethanol-loaded rats); type: in vivo, Sprague Dawley strain male rats
Experimental: Inhibiting Action for Accumulation of Neutral Lipid in Liver
The Sprague Dawley strain male rats weighing 180±30 g which had been fed rat food commercially available as CLEA CE-2 and prevented from eating food for 16 hours just before the experiment was started were divided into groups of 10 rats each. Each rat was orally administered with disodium uridine-5'-diphosphate (UDP-2Na) as a suspension in corn oil in a dose of 100 mg/kg body weight. Thirty minutes after the administration, each rat was orally administered with ethanol as a 50% aqueous solution in a dose of 6 g/kg. body weight and, 24 hours after the administration, the liver was taken out and an amount of neutral lipid contained therein was determined by the Van Handel and Zilver-Smit method. For control, a glucose aqueous solution having a caloric content equivalent to the same amount of ethanol was used instead of ethanol.

[1] = system: rat (behaviour after ethanol); assay: Behaviour and righting reflex of rats, UDP-2Na given 30 min before ethanol (Example 2); type: in vivo, Sprague Dawley strain male rats; settings: UDP-2Na 100 mg/kg p.o. 30 min before ethanol 6 g/kg
Experimental: The Sprague Dawley strain male rats weighing 260±30 g which had been fed rat food commercially available as CLEA CE-2 and prevented from eating food for 12 hours just before the experiment were divided into groups each of 10 - 13 members each. Each rat was orally administered disodium uridine-5'-diphosphate (UDP-2Na) in the form of a suspension in corn oil in an amount 100 mg/kg body weight. Thirty minutes after the administration, ethanol as a 50% aqueous solution was orally administered in a dose of 6 g/kg. body weight and then behavior of the rat was observed over 24 hours.

[2] = system: rat (behaviour after ethanol); assay: Behaviour and righting reflex of rats, UDP-2Na given 30 min after ethanol (Example 3); type: in vivo, Sprague Dawley strain male rats; settings: UDP-2Na 100 mg/kg p.o. 30 min after ethanol 6 g/kg
Experimental: The Sprague Dawley strain male rats weighing 160±30 g which were fed rat food commercially available as CLEA CE-2 and prevented from eating food for 12 hours just before the experiment was started. Each rat was administered with ethanol as a 50% aqueous solution in a dose of 6 g/kg body weight. Thirty minutes after the administration, the rat was orally administered with a suspension of disodium uridine-5'-diphosphate (UDP-2Na) in corn oil in a dose of 100 mg/kg. body weight based on UDP-2Na. The behavior of the rat was observed over 24 hours after the last administration.

[3] = Measurement of alcohol level in blood (alcoholic dehydrogenase method); type: in vivo, Sprague Dawley strain female rats
Experimental: Measurement of Alcohol Level in Blood
(§1) In this Example, Sprague Dawley strain female rats (weighing 150±20 g) divided into groups of 9 - 12 members each were used.
(§2) After abstention from food overnight each rat was orally administered disodium uridine-5'-diphosphate (UDP-2Na) in the form of a physiological saline solution in a dose of 100 mg/kg. body weight as an effective ingredient and, 30 minutes after the administration, the rat was administered with ethanol in a dose of 6 g/kg body weight. Four hours and thirty minutes after the administration of ethanol, the rat was etherized, and blood was sampled from its heart to determine alcohol level in the blood by a alcoholic dehydrogenase method. For control, a physiological saline solution was used instead of the UDP-2Na solution.

[4] = system: rat (behavior after ethanol); assay: Behavior of rats in the blood alcohol experiment (Example 4); type: in vivo, Sprague Dawley strain female rats; settings: UDP-2Na 100 mg/kg p.o. 30 min before ethanol 6 g/kg; ditto mark (") = normal walking
Experimental: as §1, §2

## O=c1ccn([C@@H]2O[C@H](COP(=O)([O-])OP(=O)([O-])O)[C@@H](O)[C@H]2O)c(=O)[nH]1.[Na+].[Na+] [UDP . 2Na, disodium uridine-5'-diphosphate]
Neutral Lipid in Liver; UDP-2Na 100 mg/kg p.o. 30 min before ethanol 6 g/kg p.o., 24 h
  % inhibition (neutral lipid accumulation in liver): 95.7%
Neutral Lipid in Liver; UDP-2Na 100 mg/kg p.o. in corn oil 30 min before ethanol 6 g/kg p.o., liver taken 24 h after
  Neutral Lipid in Liver: 12.69 ± 7.85 mg/g
[1]; 3 hrs after alcohol
  Behaviour: Deep Sleep: 1 heads
  Behaviour: Lying Flat: 5 heads
  Behaviour: Normal Walking: 7 heads
  Righting Reflex +: 12 heads
  Righting Reflex -: 1 heads
[1]; 6 hrs after alcohol
  Behaviour: Deep Sleep: 1 heads
  Behaviour: Lying Flat: 8 heads
  Behaviour: Normal Walking: 4 heads
  Righting Reflex +: 12 heads
  Righting Reflex -: 1 heads
[1]; 9 hrs after alcohol
  Behaviour: Deep Sleep: 0 heads
  Behaviour: Lying Flat: 7 heads
  Behaviour: Normal Walking: 6 heads
  Righting Reflex +: 13 heads
  Righting Reflex -: 0 heads
[1]; 12 hrs after alcohol
  Behaviour: Deep Sleep: 0 heads
  Behaviour: Lying Flat: 0 heads
  Behaviour: Normal Walking: 13 heads
  Righting Reflex +: 13 heads
  Righting Reflex -: 0 heads
[1]; 18 hrs after alcohol
  Behaviour: Deep Sleep: 0 heads
  Behaviour: Lying Flat: 0 heads
  Behaviour: Normal Walking: 13 heads
  Righting Reflex +: 13 heads
  Righting Reflex -: 0 heads
[2]; 3 hrs after alcohol
  Behaviour: Deep Sleep: 1 heads
  Behaviour: Lying Flat: 6 heads
  Behaviour: Normal Walking: 4 heads
  Righting Reflex +: 10 heads
  Righting Reflex -: 1 heads
[2]; 6 hrs after alcohol
  Behaviour: Deep Sleep: 1 heads
  Behaviour: Lying Flat: 7 heads
  Behaviour: Normal Walking: 3 heads
  Righting Reflex +: 9 heads
  Righting Reflex -: 2 heads
[2]; 9 hrs after alcohol
  Behaviour: Deep Sleep: 1 heads
  Behaviour: Lying Flat: 6 heads
  Behaviour: Normal Walking: 4 heads
  Righting Reflex +: 10 heads
  Righting Reflex -: 1 heads
[2]; 12 hrs after alcohol
  Behaviour: Deep Sleep: 0 heads
  Behaviour: Lying Flat: 1 heads
  Behaviour: Normal Walking: 10 heads
  Righting Reflex +: 11 heads
  Righting Reflex -: 0 heads
[2]; 18 hrs after alcohol
  Behaviour: Deep Sleep: 0 heads
  Behaviour: Lying Flat: 0 heads
  Behaviour: Normal Walking: 11 heads
  Righting Reflex +: 11 heads
  Righting Reflex -: 0 heads
[3]; UDP-2Na 100 mg/kg p.o. in saline 30 min before ethanol 6 g/kg, 4 h 30 min after ethanol, *Confidence Limits: 98%
  Ethanol level in Blood, Average: 1.51 ± 1.09 mg/mL
[3]; UDP-2Na 100 mg/kg p.o. in saline 30 min before ethanol 6 g/kg, blood 4 h 30 min after ethanol
  Ethanol level in Blood (individual test animals No. 1-12): 2.11 mg/mL and 1.77 mg/mL and 0.57 mg/mL and 0.24 mg/mL and 0.75 mg/mL and 2.10 mg/mL and 1.08 mg/mL and 1.35 mg/mL and 1.72 mg/mL and 1.50 mg/mL and 2.16 mg/mL and 2.74 mg/mL
[3]; UDP-2Na 100 mg/kg p.o., result in words
  alcohol level in blood in comparison with the control: significantly lowered
[4]
  Behavior (individual test animals No. 1-12): normal walking; also recorded: lying flat; also recorded: deep sleep
